In article PMC4028696, “Development of a screen to identify selective small molecules active against patient-derived metastatic and chemoresistant breast cancer cells” (Breast Cancer Research : BCR, 2013):

Experiments:
PE1007070 cells = experiment: Live/dead assay, monolayer; assay type: cell-based, human; conditions: 20 μM, five days, vs DMSO
Method: The hTERT-HMEC and PE1007070 cells were seeded in black wall clear bottom 96-well plates (Greiner Bio-one, Monroe, NC, USA) in 100 μL of modified M87 media at varying densities to achieve 80% to 90% confluency at the end of the assay. After 24 hours, the media were aspirated and the cells were treated with 20 μM C-6 or the corresponding 0.02% (v/v) DMSO vehicle control. After culturing for five days, the viability and cytotoxicity was determined with the Live/dead assay (Life Technologies) according to the manufacturer's instructions. Briefly, the media were aspirated and the cells were treated with 4 μM Calcein-AM and 8 μM Ethidium homodimer-1 diluted in (D)MEM/F12 for 30 minutes at 37°C. Subsequent imaging was performed with an IX81 microscope (Olympus, Center Valley, PA, USA) running Slide Book 5.0 software (Intelligent Imaging Innovations, Denver, CO, USA).

caspase-3/7, -8 or -9 = experiment: Caspase-Glo caspase activity assay; assay type: cell-based, human; conditions: 30 μM, 24 or 48 hours, normalized to ATP viability
Method: Adherent cells were seeded in two identical white 96-well plates (Costar) in 100 μL of their respective media at varying densities to achieve 80% to 90% confluency at the end of the assay. After 24 hours, the media were aspirated and the cells were treated with 30 μM C-6 or a matched 0.03% (v/v) DMSO vehicle control in the corresponding media containing 2% FBS. For suspension cultures, cells were first seeded in 75 μL of media. At the start of treatment, 25 μL of a 4× concentration of C-6 or a matched (v/v) DMSO vehicle control was added to each well such that the final volume in each well was 100 μL and the final concentration of C-6 was 30 μM. For the caspase activity assays, additional wells were treated with 1 μM staurosporine. […] For the Caspase-Glo assay, cell viability was determined for the additional 96-well plate utilizing the ATPlite 1step assay system (Perkin Elmer) according to the manufacturer's instructions. For the AAF-Glo assay, the total protein in each well of the additional plate was measured using the BCA protein assay kit (Peirce, Rockford, IL, USA). Luminescence measurements were acquired utilizing a Perkin Elmer 2104 EnVision plate reader. Raw luminescence values for each assay were normalized to the DMSO vehicle control wells. […]

[1] = system: PE cells from three different patients; experiment: AAF-Glo released protease (cell death) assay; assay type: cell-based, human; conditions: 30 μM, 24 to 120 hours, vs DMSO
Method: (§1) Adherent cells were seeded in two identical white 96-well plates (Costar) in 100 μL of their respective media at varying densities to achieve 80% to 90% confluency at the end of the assay. After 24 hours, the media were aspirated and the cells were treated with 30 μM C-6 or a matched 0.03% (v/v) DMSO vehicle control in the corresponding media containing 2% FBS. For suspension cultures, cells were first seeded in 75 μL of media. At the start of treatment, 25 μL of a 4× concentration of C-6 or a matched (v/v) DMSO vehicle control was added to each well such that the final volume in each well was 100 μL and the final concentration of C-6 was 30 μM. For the caspase activity assays, additional wells were treated with 1 μM staurosporine. After culturing for the appropriate amount of time, either the AAF-Glo or Caspase-Glo assays (Promega, Madison, WI, USA) were performed on one 96-well plate according to the manufacturer's instructions. For the Caspase-Glo assay, cell viability was determined for the additional 96-well plate utilizing the ATPlite 1step assay system (Perkin Elmer) according to the manufacturer's instructions. For the AAF-Glo assay, the total protein in each well of the additional plate was measured using the BCA protein assay kit (Peirce, Rockford, IL, USA). Luminescence measurements were acquired utilizing a Perkin Elmer 2104 EnVision plate reader. Raw luminescence values for each assay were normalized to the DMSO vehicle control wells. The values for the Caspase-Glo or AAF-Glo assays were then normalized to the ATPlite values or total protein, respectively, in order to account for differences in cell numbers and were plotted as an average ± SD of four wells per condition.

MCF-10A cells = experiment: AAF-Glo released protease (cell death) assay; assay type: cell-based, human; conditions: 30 μM, 24 to 120 hours, vs DMSO
Method: as §1

MDA-MB-231 cells = experiment: AAF-Glo released protease (cell death) assay; assay type: cell-based, human; conditions: MDA-MB-231, 30 μM, 24 to 120 hours
Method: as §1

PE1008032 cells = experiment: AAF-Glo released protease (cell death) assay; assay type: cell-based, human; conditions: PE1008032, 30 μM, 24 to 120 hours
Method: as §1

MCF-7 cells = experiment: AAF-Glo released protease (cell death) assay; assay type: cell-based, human; conditions: MCF-7, 30 μM, 24 to 120 hours, vs DMSO
Method: as §1

[2] = Chemical screen, difference in ATP viability between normal and tumor cells; assay type: cell-based; conditions: human, four days, duplicate, read-out: difference in viability between the hTERT-HMEC and PE1007070 cells (selectivity)
Method: The hTERT-HMEC and PE1007070 cells were seeded in white 96-well plates (Costar) in 100 μL of modified M87 media at varying densities to achieve 80% to 90% confluency at the end of the assay. The 10 mM DMSO stock solutions from the 560-compound University of Utah Department of Chemistry library were diluted with modified M87 media utilizing an EP Motion 5075 (Eppendorf North America) liquid handler. In addition, corresponding DMSO vehicle and doxorubicin controls were prepared in modified M87 media. After the cells were cultured for 24 hours, 80 μL of media was aspirated from each well. […] After four days of treatment, viability was determined utilizing the ATPlite 1step assay system (Perkin Elmer) according to the manufacturer's instructions. Luminescence measurements were acquired utilizing a Perkin Elmer 2104 EnVision plate reader. Raw luminescence values were normalized to the DMSO vehicle control wells for each plate and cell type. […]
Reagent/ compound dispensing system Eppendorf EP Motion 5075 (Compound dilution) Detection instrument and software Luminescence was detected with a Perkin Elmer Envision 2104 Assay validation/QC 20 µM Doxorubicin was used as a positive control and used to […]
Additional comments Selectivity of compounds was determined by subtracting the average viability of the PE1007070 from the hTERT-HMEC cells […]

SMILES: COc1cc(OC)cc(C(C)c2ccc(NC(=O)OC(C)(C)C)cc2)c1 (centres unmarked) [C-6]
- number of dead cells (PE1007070 cells): led to an increase in the number of dead cells
- caspase activity (caspase-3/7, -8 or -9): did not induce significant caspase activity
- relative AAF-Glo activity [1]: significant increase
- relative AAF-Glo activity (MCF-10A cells): did not cause an increase
- relative AAF-Glo activity (MDA-MB-231 cells): did not have increased AAF-Glo activity
- relative AAF-Glo activity (PE1008032 cells): did not have increased AAF-Glo activity
- relative AAF-Glo activity (MCF-7 cells): significant increase
- viability difference, normal minus tumor cells (selectivity) at 4 days, 20 µM [2]: 62%
